From US9808425B2, “Targeted liposomes in cancer therapy” (WESTERN UNIVERSITY OF HEALTH SCIENCES, priority 2011, dated 2017)
pIC50: −log10 of the molar value.

Tested on: A549 cells
Assay: DNR-mediated cytotoxicity, MTS assay
Assay type: cell-based
Conditions: Homo sapiens, A549, 72 h, read-out: IC50 AVG
Protocol: Because DNR is a cytotoxic compound, the effectiveness of cystine liposomal DNR as an intracellular delivery system was assessed by relying on cytotoxicity measurements as a measure of DNR uptake. […] Cytotoxicity was measured in A549 cells following the addition of the aforementioned DNR formulations to the cells followed by an incubation period, and determination of cytotoxicity by using a MTS assay. Briefly, an MTS assay is a non radioactive cell proliferative assay of a tetrazolium compound (3-(4,5-dimethylthiazol-2-yl)-5-(3-carboxymethoxyphenyl)-2-(4-sulfophenyl)-2H-tetrazolium, inner salt; MTS) and the electron coupling reagent, phenazine methosulfate (PMS). MTS is bio-reduced by cells to a formazan compound by a reductase enzyme present in metabolically active cells. The absorbance of the formazan compound can be measured at 490 nm wavelength and is directly proportional to the number of living cells. The toxicity was determined using dose response curve to determine IC50. IC50 is the concentration of the test compound required to reduce light absorbance capacity of the cells by 50%.
MTS reagent was prepared by mixing 20% MTS and 1% PMS solution in RPMI 1640 medium of volume 8 ml. […] The amount of formazan was measured at 490 nm wavelength. […]

COc1cccc2c1C(=O)c1c(O)c3c(c(O)c1C2=O)C[C@@](O)(C(C)=O)C[C@@H]3O[C@H]1C[C@H](N)[C@H](O)[C@H](C)O1 [Free DNR, daunorubicin] gave a pIC50 of 4.82.
